Key:
[1] = Inhibition of TEL-FLT3 D835V mutant (unknown origin) expressed in mouse BaF3 cells assessed as antiproliferative activity incubated for 72 hrs by CCK8 assay
[2] = Inhibition of FLT3 ITD/D835V double mutant (unknown origin) expressed in mouse BaF3 cells assessed as antiproliferative activity incubated for 72 hrs by CCK8 assay
[3] = Inhibition of FLT3 ITD mutant (unknown origin) expressed in mouse BaF3 cells assessed as antiproliferative activity incubated for 72 hrs by CCK8 assay

With `Cc1c(NC(=O)CCN2CCCC2)c[nH]c1/C=C1\C(=O)Nc2ccc(F)cc21` the IC50 [1] was 0.03 µM, the IC50 [2] was 0.027 µM and the IC50 [3] was 0.013 µM.
